For `CC(C)(C)NS(=O)(=O)c1cccc(F)n1`, the melting point lay within 88 to 90 °C. As for `O=[N+]([O-])c1cc(C(c2ccc(Nc3ccccc3)c([N+](=O)[O-])c2)(C(F)(F)F)C(F)(F)F)ccc1Nc1ccccc1`, the melting point was in the range of 165 to 166 °C.

`CCN1CCc2ccc(OC)c(Nc3ncc(Cl)c(Nc4ccc(N5CCOCC5)cc4OC)n3)c2CC1=O` showed a melting point of 87 to 103 °C. The same measure for `CC(=O)NC(C)COC1CCC(c2cc3ccc(OCC4CC4)cc3o2)CC1` (stereo unspecified): 104 to 105 °C; for `NC(=O)C(c1ccc(C(=O)O)cc1)C(CCc1ccccc1)c1ccccc1N1CCCCC1` (stereo unspecified): 167 to 170 °C; for `Cc1nc2c3c(ccn2c1C)C(=O)[C@H](OC(=O)C(C)(C)C)[C@@H](c1ccccc1)N3`: 185 to 187 °C. The value for `Cc1[nH]c2ccccc2c1C1=C(c2c(C)[nH]c3ccccc23)C(=O)N(C)C1=O` was > 290 °C; that for `Cc1ccc(-c2nc(C(F)(F)F)nn2-c2ccc(S(N)(=O)=O)cc2)cc1` was 245 to 247 °C. The same measure for `N#Cc1ccc([C@H]2CC[C@H](CO)CC2)cc1`: 108 °C; for `CC(C)OC(=O)c1cc(I)c(F)cc1Cl`: 38 to 43 °C.

On to `CCn1c(C(C)NS(=O)(=O)c2ccc(Cl)c(Cl)c2)cnc1Oc1ccc(C)cc1` (stereo unspecified), for which the melting point is 142 to 144 °C. `CN(C)CCCC1(O)c2ccccc2OC12CCCCCC2` (stereo unspecified) gave a melting point of 96 to 98.5 °C. The same measure for `CCOC(=O)c1ccc(CN2CCN(c3cc(-c4ccccc4)c4ccc(=O)ccn34)CC2)cc1`: 129 °C; for `NC(=O)Cc1cc(=O)oc2cc(OCc3cccc(Cl)c3)ccc12`: 185 to 186 °C; for `OC(c1ccc(Cl)cc1)C(Nn1cncn1)c1ccc(F)cc1F` (stereo unspecified): 61 to 76 °C.

In turn, `C=CCNC(=S)Nc1cc(=N)n2c(n1)SCCC2` returned a melting point of 196 to 197 °C.

Molecule `COc1ccccc1C(=O)CN1CCC(=O)C(C(c2ccc(F)cc2)c2ccc(F)cc2)C1` (stereo unspecified) had a melting point of 148 to 149 °C. The value for `Cc1cccc2c1N(N=C=O)C(=O)CN=C2` was 206 to 212 °C; that for `CCCOc1ccc(S(C)(=O)=O)cc1-c1nc2c(CC)nn(Cc3ccccn3)c2c(=O)[nH]1` was 209 to 211 °C. The same measure for `Cc1nn(-c2ccc(C(=O)O)cc2)c(O)c1-c1c(C)nn(-c2ccc(C(=O)O)cc2)c1O`: > 280 °C. In turn, `CCN(CC)C(=O)Nc1ccc(Cn2c(=O)n(C3CCCCC3)c3cc(Cl)ccc32)c(OC)c1` registered a melting point of 190 °C. The same measure for `O=C(Nc1ccccc1)Nc1cccc(-c2c(-c3ccccc3)cnc3c(C(F)(F)F)cccc23)c1`: 202 to 205 °C; for `Cc1cccc(C(=O)Nc2cn(C3CCCCO3)nc2C(=O)NCCC#N)n1` (stereo unspecified): 186 to 187 °C; for `O=c1[nH]c2c(Cl)cccc2c(=O)o1`: 225 to 230 °C. Turning to `CCOc1nn(Cc2ccc(OCc3cccnc3)c(OC)c2)cc1CCC(=O)O`, the melting point was in the range of 124 to 125 °C.

Regarding `CC(C)(C)c1ccc(/C=C/C(=O)Nc2ccc3ocnc3c2)cc1`, the melting point was determined as 177 °C. `CC(=O)Nc1ccc2c(c1)SC1(CC1)C2=O` showed a melting point of 195 to 196 °C. The value for `O=C(Nc1noc2ccccc12)N1CCN(c2nc(-c3ccccn3)ns2)CC1` was 222 to 223 °C; that for `CCOC(=O)C(=O)CC(=O)c1cn(CCCCc2ccccc2)c2ccccc2c1=O` was 88 to 90 °C. The value for `O=C(CCC(=O)N1CCC(c2ccc(Cl)cc2)CC1)c1ccc2c(c1)CCN(C1CCCC1)CC2` was 160 to 162 °C; that for `CCOC(=O)c1nn(Cc2ccccc2F)c2ncccc12` was 85 °C; that for `COc1ccc(S(=O)(=O)n2ccc3ccnc(-c4ccc(O)cc4)c32)cc1` was 179 to 182 °C. `O=S(=O)(NCCC(F)=C(F)F)c1ccc(C(F)(F)F)cc1`: the melting point was 68 to 70 °C. The same measure for `COc1ccc(CC(C)(N)C(=O)O)cc1OC` (stereo unspecified): 244 to 246 °C. The same measure for `COC(=O)C1CCC2C(CCC3C(C)(C)CCCC23C)C(=O)C1` (stereo unspecified): 67 to 68 °C; for `CN1C=CNC1=C(C(=O)C(F)(F)F)C(=O)C(F)(F)F`: 180 °C; for `CCOC(=O)N1Cc2sc3ncn(CCN4CCN(c5ccccc5OC)CC4)c(=O)c3c2C1`: 153 to 155 °C. As for `N#Cc1[nH]ccc1-c1ccc(Cl)cc1`, the melting point lay in the range of 114 to 115 °C. The same measure for `Fc1ccc(C(c2ccccc2Cl)N2CCN(CCCOC(c3ccccc3)c3ccccc3)CC2)cc1` (stereo unspecified): 98 to 99 °C; for `O=c1ccoc2cc(OS(=O)(=O)C(F)(F)F)ccc12`: 43 to 44 °C; for `Cc1c(-c2ccc(OCc3ccccc3)cc2)n(Cc2ccc(OCCN3C[C@@H]4CC[C@H]3C4)cc2)c2ccc(OCc3ccccc3)cc12`: 95 to 100 °C. `Cn1ccnc1C(=O)c1cc(C(C)(C)C)c(O)c(C(C)(C)C)c1` showed a melting point of 172 to 174 °C. The value for `O=C(Nc1ccccc1Nc1ccccc1)N[C@@H](Cc1ccc(NC(=O)c2c(Cl)cccc2Cl)cc1)C(=O)O` was 174 °C; that for `O=[N+]([O-])c1cccc(-c2nc3ccc(OC(F)(F)F)cc3[nH]2)c1` was 193 to 195 °C. The same measure for `CC(C)CC1(CC(=O)NOCc2ccccc2)CC(=O)N(CCc2ccccc2)C1=O` (stereo unspecified): 115 to 117 °C; for `O=[N+]([O-])c1c(Br)nn(CC(O)CO)c1NCc1ccccc1` (stereo unspecified): 90.1 °C. Molecule `CCOC(=O)CC(O)CP(=O)(OCC)OCC` (stereo unspecified) displayed a melting point of 33 to 35 °C. The value for `N#CC1OC(COC(=O)c2ccccc2)C(OC(=O)c2ccccc2)C1OC(=O)c1ccccc1` (stereo unspecified) was 77 to 78 °C; that for `COc1ccc2nc(COc3ccc(F)c(C(N)=O)c3F)sc2c1` was 190 to 192 °C; that for `CCC1(C)CC(C#N)(NC(=O)Nc2ccccc2)C(C)C(C)(CC)N1` (stereo unspecified) was 167 to 170 °C. In turn, `Clc1ccc2c(c1)c(-c1ccccc1)nn1cnnc21` had a melting point of 189 to 190 °C. The same measure for `CCOC(=O)C1[C@@H]2[C@@H](O)[C@@H]3O[C@H](c4ccccc4)OC[C@H]3O[C@H]12` (stereo partly specified): 137 to 139 °C; for `CCOC(=O)COc1ccc(NC(=O)c2sc(NC(=N)N)nc2C)cc1`: 223 °C; for `COc1ccc(COc2ccc(CC(=O)O)cc2Cl)cc1`: 150 to 152 °C. The value for `CC(=O)SCC(CC(N)=O)C(=O)O` (stereo unspecified) was 110 to 111 °C; that for `O=C(O)[C@@H]1CN[C@H](C(=O)O)C1` was 219 to 220 °C; that for `CCOC(=O)Cc1c(C(=O)OCC)c(Br)c(C(=O)c2ccc(Cl)cc2)n1C` was 88 to 90 °C.

`COC(=O)[C@@H]1C[C@H](C(=O)OC(C)(C)C)N(C(=O)CNC(=O)Nc2cccc(C)c2)[C@@H]1c1ccccc1` (racemic) yielded a melting point of 130 °C. The value for `CCC(COC)NC(=O)C(Cc1ccc(OCc2ccccc2)cc1)NC(=O)C(CC(C)C)N(C)Cc1ccc(N(C)C)cc1` (stereo unspecified) was 109 to 112 °C. The same measure for `COc1ccc(-c2nc(C#N)cn2-c2ccc(OC)cc2)cc1`: 132 to 134 °C; for `CC1(C)CCc2c(N3CCOCC3)nc3sc4c(NCc5ccco5)ncnc4c3c2C1`: 210 to 211 °C.

Source of the values: a melting point compilation (Tetko et al.; mined from patent text by program, amines drawn as free bases though some values may be those of a salt).
